We go through 2 molecules from paper PMC8929578, “In vitro and in silico evaluation of Ononis isoflavonoids as molecules targeting the central nervous system” (PLoS ONE, 2022).

Like-named read-outs stand apart in the source and are kept apart here.

One data set has as its system MAO-B vs MAO-A. Briefly: Selectivity index of ChEMBl reference structures (MAO-A and MAO-B IC50). The class given is biochemical, human. Particulars: MAO-A IC50 / MAO-B IC50 of ChEMBL reference structures.
The target in a further data set is T1, Monoamine oxidase A (Homo sapiens, UniProt P21397).
T1 sequence (P21397 1-527): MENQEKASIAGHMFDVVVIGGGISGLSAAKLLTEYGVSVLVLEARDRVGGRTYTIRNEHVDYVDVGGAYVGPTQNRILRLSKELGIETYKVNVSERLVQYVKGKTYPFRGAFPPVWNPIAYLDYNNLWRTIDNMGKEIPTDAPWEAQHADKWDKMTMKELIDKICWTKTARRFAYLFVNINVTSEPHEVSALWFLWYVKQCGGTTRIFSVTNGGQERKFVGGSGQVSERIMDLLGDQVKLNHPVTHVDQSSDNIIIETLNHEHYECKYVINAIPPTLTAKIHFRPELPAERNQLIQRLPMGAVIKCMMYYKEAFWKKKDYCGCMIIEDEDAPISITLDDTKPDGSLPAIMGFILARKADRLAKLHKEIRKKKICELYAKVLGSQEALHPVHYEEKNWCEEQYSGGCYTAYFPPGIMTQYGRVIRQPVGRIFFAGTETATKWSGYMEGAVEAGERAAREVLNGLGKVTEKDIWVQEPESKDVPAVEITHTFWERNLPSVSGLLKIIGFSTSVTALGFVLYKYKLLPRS
As to conditions: cited from earlier work.

A further data set deals with T2, Monoamine oxidase B (Homo sapiens, UniProt P27338).
T2 sequence (P27338 2-520): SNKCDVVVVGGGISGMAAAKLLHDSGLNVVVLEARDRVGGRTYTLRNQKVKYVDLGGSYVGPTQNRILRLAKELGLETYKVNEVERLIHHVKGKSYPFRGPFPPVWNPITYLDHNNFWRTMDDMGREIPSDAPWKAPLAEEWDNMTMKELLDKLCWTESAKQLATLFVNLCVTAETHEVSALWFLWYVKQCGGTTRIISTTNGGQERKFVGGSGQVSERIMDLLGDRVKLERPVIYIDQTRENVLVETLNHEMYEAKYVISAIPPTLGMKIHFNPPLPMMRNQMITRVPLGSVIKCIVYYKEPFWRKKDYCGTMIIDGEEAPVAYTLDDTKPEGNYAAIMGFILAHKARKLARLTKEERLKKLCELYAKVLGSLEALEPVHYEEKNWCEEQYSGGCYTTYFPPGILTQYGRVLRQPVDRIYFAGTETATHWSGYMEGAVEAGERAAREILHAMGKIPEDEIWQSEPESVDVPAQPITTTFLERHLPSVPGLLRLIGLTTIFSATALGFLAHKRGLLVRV
Particulars: cited from earlier work.

A further data set has as its system MAO-B. As to conditions: in vitro; cited from earlier work.
The conditions of data set [1]: PAMPA, pH 7.4.

A word on the IC50: it is the concentration that inhibits the measured activity by half. `c1ccc2c(c1)OCC(C1=NCCN1)O2` (centres unmarked) [CHEMBL10316, IDAZOXAN] returned a Selectivity index with MAO-B vs MAO-A of 1. Moreover, at Monoamine oxidase A (MAO-A, ref ChEMBL database), the “pChEMBL Value, Type A” value is 6. Further, on Monoamine oxidase A (human enzyme, ref ChEMBl database), the “pChEMBL Value, MAO A” value is recorded as 6. The IC50 at Monoamine oxidase A (read-out: Standard Value (IC50), MAO A, human enzyme, ref ChEMBl database) is 1000 nM; at Monoamine oxidase A (read-out: Standard Value (IC50), Type A, MAO-A, ref ChEMBL database) it was 1000 nM; at Monoamine oxidase B (MAO-B, ref ChEMBL database, read-out: Standard Value (IC50), Type B) it was 1000 nM; on Monoamine oxidase B (human enzyme, lines marked B, ref ChEMBl database, read-out: Standard Value (IC50), MAO B) it was 1000 nM. The “pChEMBL Value, Type B” value on Monoamine oxidase B (MAO-B, ref ChEMBL database) was 6. For the same molecule, the “pChEMBL Value, MAO B” value on Monoamine oxidase B (human enzyme, lines marked B, ref ChEMBl database) is 6.
Turning to `COc1ccc2c(c1)O[C@H]1c3ccc(O)cc3OC[C@@H]21` [Medicarpin], in the data set with MAO-B, the IC50 is 300 nM. Besides, the “Experimental log P” value (pH 5) amounted to 3.03. The “Measured log D^7.4 ± SE” value (pH 7.4) came out at 3.03 ± 0.02. Moreover, the “Experimental log Pe value” in data set [1] (4 h, 100 µM) is on record as -4.45; in data set [1], -4.45 ± 0.04.
